Assays:
[1] = biological target: T1, Glucorticoid Receptor (GR) (Homo sapiens, UniProt P04150); assay: Radioligand binding assay, steroid hormone receptor GR; settings: MAP4343 10 µM; 3 nM [^3H] Dexamethasone; Human HeLa S3 cells
T1 construct: Human HeLa S3 cells; endogenous in cells; host or cells: HeLa S3
Method: Binding affinity of 3β-methoxy-PREG (MAP4343) for receptors of steroid hormones was evaluated using radioligand binding assays.
Table 3. Affinity of MAP4343 (10 µM) for steroid hormones receptors measured by radioligand binding assays. […] None of the results met significance criteria at concentrations used.

[2] = biological target: T2, Muscarinic (Cholinergic) M1 (Homo sapiens, UniProt P11229); assay: CNS receptor binding assay, M1; settings: MAP4343 10 µM; [^3H] pirenzepine; Human recombinant (CHO cells); read-out: % Inhibition of control specific binding
T2 construct: expressed in transfected cells; host or cells: CHO cells
T2 sequence (P11229 whole entry): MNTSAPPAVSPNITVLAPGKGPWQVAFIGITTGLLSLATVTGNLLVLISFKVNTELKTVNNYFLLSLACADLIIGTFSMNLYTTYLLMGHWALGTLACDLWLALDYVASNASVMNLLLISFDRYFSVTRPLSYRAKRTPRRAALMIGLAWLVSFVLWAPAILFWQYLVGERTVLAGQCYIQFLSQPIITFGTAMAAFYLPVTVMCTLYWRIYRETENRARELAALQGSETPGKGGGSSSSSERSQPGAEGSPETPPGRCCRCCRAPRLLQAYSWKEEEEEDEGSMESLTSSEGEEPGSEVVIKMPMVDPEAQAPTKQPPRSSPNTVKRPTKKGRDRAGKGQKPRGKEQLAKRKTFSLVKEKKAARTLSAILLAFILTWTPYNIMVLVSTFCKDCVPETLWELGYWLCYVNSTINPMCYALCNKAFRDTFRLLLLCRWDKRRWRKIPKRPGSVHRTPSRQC
Method: (§1) MAP4343 has been screened for in vitro affinity to 80 different CNS neurotransmitters receptors using various validated binding assays.
(§2) Table 4. In vitro affinity of MAP4343 (10 µM) for CNS neurotransmitter receptors associated with side effects and/or abuse liability. Data are the average of two individual assays for each receptor and are expressed as % inhibition of the control specific binding of the reference compound. Results showing an inhibition higher than 50% are considered to represent significant effects of the test compound.

[3] = biological target: T3, Muscarinic (Cholinergic) M5 (Homo sapiens, UniProt P08912); assay: CNS receptor binding assay, M5; settings: MAP4343 10 µM; [^3H] 4-DAMP; Human recombinant (CHO cells); read-out: % Inhibition of control specific binding
T3 construct: expressed in transfected cells; host or cells: CHO cells
T3 sequence (P08912 whole entry): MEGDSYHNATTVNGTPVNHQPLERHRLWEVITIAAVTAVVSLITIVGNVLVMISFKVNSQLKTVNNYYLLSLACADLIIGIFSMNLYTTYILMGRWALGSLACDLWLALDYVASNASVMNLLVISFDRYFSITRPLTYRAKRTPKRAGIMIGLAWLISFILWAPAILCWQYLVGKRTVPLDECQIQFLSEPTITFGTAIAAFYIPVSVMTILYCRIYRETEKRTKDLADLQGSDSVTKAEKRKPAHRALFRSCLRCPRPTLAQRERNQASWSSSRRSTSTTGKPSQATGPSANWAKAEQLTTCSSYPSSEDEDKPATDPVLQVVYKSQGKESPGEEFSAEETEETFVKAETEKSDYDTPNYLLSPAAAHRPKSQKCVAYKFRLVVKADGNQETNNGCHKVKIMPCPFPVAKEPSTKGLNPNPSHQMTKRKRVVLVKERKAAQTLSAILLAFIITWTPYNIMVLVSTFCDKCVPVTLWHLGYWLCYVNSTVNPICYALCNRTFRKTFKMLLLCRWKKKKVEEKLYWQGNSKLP
Method: as §1, §2

[4] = tested on: Noradrenergic α2; assay: CNS receptor binding assay, α2; settings: MAP4343 10 µM; [^3H] RX 821002; rat cerebral cortex
Method: as §1, §2

[5] = biological target: Noradrenergic β2 (Homo sapiens, UniProt P07550); assay: CNS receptor binding assay, β2; settings: MAP4343 10 µM; [^3H] (-) CGP 12178; Human recombinant (CHO cells); read-out: % Inhibition of control specific binding
Method: as §1, §2

[6] = biological target: Serotoninergic 5-HT2A (Homo sapiens, UniProt P28223); assay: CNS receptor binding assay, 5-HT2A; settings: MAP4343 10 µM; [^3H] ketanserin; Human recombinant (HEK-293 cells); read-out: % Inhibition of control specific binding
Serotoninergic 5-HT2A, sequence (P28223 whole entry): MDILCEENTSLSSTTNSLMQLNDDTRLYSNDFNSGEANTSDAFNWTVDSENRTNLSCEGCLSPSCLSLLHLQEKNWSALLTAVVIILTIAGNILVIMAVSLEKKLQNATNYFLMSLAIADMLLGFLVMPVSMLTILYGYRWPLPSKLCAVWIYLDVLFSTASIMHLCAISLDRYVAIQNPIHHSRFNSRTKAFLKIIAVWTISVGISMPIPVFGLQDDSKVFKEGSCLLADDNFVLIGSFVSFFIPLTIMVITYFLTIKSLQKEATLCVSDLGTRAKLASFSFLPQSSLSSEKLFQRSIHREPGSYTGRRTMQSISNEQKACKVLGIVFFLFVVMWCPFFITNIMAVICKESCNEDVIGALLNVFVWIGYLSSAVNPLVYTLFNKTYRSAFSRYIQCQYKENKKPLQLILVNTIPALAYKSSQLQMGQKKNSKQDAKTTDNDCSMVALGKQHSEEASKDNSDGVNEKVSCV
Method: as §1, §2

[7] = biological target: Serotoninergic 5-HT2B (Homo sapiens, UniProt P41595); assay: CNS receptor binding assay, 5-HT2B; settings: MAP4343 10 µM; [^125I] (±) DOI; Human recombinant (CHO cells); read-out: % Inhibition of control specific binding
Serotoninergic 5-HT2B, sequence (P41595 whole entry): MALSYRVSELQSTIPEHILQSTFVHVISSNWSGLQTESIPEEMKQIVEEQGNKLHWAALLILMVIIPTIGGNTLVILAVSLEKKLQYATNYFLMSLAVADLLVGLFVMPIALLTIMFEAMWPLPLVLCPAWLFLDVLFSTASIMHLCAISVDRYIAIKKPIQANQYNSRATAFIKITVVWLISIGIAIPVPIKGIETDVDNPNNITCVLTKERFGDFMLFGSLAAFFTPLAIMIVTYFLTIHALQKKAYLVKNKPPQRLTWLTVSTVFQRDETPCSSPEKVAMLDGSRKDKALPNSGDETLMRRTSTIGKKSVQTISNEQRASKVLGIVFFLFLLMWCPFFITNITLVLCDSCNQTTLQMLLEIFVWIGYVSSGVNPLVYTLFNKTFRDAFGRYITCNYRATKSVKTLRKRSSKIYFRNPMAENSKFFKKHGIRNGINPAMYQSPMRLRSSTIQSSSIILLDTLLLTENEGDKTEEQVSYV
Method: as §1, §2

[8] = biological target: Serotoninergic 5-HT2C (Homo sapiens, UniProt P28335); assay: CNS receptor binding assay, 5-HT2C; settings: MAP4343 10 µM; [^3H] mesulergine; Human recombinant (CHO cells); read-out: % Inhibition of control specific binding
Serotoninergic 5-HT2C, sequence (P28335 33-458): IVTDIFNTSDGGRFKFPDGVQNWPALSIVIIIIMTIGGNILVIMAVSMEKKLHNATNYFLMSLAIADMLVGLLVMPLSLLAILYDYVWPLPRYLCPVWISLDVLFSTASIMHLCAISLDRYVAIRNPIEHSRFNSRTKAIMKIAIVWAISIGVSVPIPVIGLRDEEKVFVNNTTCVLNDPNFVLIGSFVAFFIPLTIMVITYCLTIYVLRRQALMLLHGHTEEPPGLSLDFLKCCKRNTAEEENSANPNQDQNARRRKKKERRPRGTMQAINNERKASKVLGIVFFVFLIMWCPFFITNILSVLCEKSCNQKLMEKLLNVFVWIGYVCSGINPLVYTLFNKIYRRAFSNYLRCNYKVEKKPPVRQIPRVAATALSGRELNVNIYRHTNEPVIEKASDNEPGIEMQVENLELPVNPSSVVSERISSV
Method: as §1, §2

[9] = biological target: Serotoninergic 5-HT6 (Homo sapiens, UniProt P50406); assay: CNS receptor binding assay, 5-HT6; settings: MAP4343 10 µM; [^3H] LSD; Human recombinant (CHO cells); read-out: % Inhibition of control specific binding
Method: as §1, §2

[10] = biological target: Serotoninergic Transporter (Homo sapiens, UniProt P31645); assay: CNS receptor binding assay, serotoninergic transporter; settings: MAP4343 10 µM; [^3H] imipramine; Human recombinant (CHO cells); read-out: % Inhibition of control specific binding
Serotoninergic Transporter, sequence (P31645 whole entry): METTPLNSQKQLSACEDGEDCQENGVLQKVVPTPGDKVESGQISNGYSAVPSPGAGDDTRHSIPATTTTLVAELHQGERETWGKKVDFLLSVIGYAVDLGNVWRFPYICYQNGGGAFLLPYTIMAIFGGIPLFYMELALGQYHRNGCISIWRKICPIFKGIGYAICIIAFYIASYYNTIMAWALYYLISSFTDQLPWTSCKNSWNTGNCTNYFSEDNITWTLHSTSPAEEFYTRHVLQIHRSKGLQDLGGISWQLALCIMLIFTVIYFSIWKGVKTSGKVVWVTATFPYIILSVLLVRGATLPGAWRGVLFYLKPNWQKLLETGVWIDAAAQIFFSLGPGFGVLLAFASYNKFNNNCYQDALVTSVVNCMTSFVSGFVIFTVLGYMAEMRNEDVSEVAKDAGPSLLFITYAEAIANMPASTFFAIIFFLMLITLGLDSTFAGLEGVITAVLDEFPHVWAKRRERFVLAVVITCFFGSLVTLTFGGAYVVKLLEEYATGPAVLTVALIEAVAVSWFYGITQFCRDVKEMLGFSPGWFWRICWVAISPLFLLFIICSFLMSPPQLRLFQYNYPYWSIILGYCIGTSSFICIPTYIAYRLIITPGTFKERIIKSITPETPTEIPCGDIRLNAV
Method: as §1, §2

[11] = biological target: Dopaminergic D1 (Homo sapiens, UniProt P21728); assay: CNS receptor binding assay, D1; settings: MAP4343 10 µM; [^3H] SCH 23390; Human recombinant (CHO cells); read-out: % Inhibition of control specific binding
Dopaminergic D1, sequence (P21728 whole entry): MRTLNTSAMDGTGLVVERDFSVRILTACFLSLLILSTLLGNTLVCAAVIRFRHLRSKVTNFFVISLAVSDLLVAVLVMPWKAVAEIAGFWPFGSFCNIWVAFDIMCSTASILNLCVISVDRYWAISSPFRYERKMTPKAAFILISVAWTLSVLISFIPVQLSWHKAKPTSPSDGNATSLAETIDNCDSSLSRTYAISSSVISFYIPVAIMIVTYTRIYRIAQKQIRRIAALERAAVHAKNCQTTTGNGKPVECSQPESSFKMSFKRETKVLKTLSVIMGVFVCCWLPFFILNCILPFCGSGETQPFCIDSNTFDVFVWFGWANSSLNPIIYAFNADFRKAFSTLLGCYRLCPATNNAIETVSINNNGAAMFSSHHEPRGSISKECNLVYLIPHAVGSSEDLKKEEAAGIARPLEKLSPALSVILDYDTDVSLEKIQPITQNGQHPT
Method: as §1, §2

[12] = biological target: Dopaminergic D2S (Homo sapiens, UniProt P14416); assay: CNS receptor binding assay, D2S; settings: MAP4343 10 µM; [^3H] spiperone; Human recombinant (HEK-293 cells); read-out: % Inhibition of control specific binding
Method: as §1, §2

[13] = biological target: Cannabinoid CB1 (Homo sapiens, UniProt P21554); assay: CNS receptor binding assay, CB1; settings: MAP4343 10 µM; [^3H] CP 55940; Human recombinant (CHO cells); read-out: % Inhibition of control specific binding
Method: as §1, §2

[14] = biological target: Oppioid δ2 (Homo sapiens, UniProt P41143); assay: CNS receptor binding assay, opioid δ2; settings: MAP4343 10 µM; [^3H] DADLE; Human recombinant (CHO cells); read-out: % Inhibition of control specific binding
Oppioid δ2, sequence (P41143 whole entry): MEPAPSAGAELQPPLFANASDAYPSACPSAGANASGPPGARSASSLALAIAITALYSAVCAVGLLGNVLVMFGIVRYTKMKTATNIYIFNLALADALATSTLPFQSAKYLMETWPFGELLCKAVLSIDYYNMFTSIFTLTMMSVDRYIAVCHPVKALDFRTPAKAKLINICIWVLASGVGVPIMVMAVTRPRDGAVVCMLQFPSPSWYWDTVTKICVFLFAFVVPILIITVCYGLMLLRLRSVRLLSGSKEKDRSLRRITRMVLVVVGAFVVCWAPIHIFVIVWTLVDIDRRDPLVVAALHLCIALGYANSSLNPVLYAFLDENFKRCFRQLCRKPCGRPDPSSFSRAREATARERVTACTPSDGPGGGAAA
Method: as §1, §2

[15] = biological target: Oppioid K (Rattus norvegicus, UniProt P34975); assay: CNS receptor binding assay, opioid K; settings: MAP4343 10 µM; [^3H] U 69593; rat recombinant (CHO cells); read-out: % Inhibition of control specific binding
Method: as §1, §2

[16] = biological target: Oppioid µ (Homo sapiens, UniProt P35372); assay: CNS receptor binding assay, opioid µ; settings: MAP4343 10 µM; [^3H] DAMGO; Human recombinant (HEK-293 cells); read-out: % Inhibition of control specific binding
Oppioid µ, sequence (P35372 whole entry): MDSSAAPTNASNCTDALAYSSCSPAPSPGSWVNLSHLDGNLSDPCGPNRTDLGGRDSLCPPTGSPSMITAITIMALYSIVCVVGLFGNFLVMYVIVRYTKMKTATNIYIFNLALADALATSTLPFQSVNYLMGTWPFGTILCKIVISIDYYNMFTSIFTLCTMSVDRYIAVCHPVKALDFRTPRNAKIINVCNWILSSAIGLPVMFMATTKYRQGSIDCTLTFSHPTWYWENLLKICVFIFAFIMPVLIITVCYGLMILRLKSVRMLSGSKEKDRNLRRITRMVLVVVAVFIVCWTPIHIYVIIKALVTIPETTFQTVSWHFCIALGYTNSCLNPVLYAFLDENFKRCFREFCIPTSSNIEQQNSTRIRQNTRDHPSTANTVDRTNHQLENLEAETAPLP
Method: as §1, §2

[17] = tested on: Wistar Kyoto (WKY) rats; assay: Locomotor activity in the open-field arena, WKY rats; format: in vivo, rat; settings: acute, MAP4343 10 mg/kg s.c., fluoxetine 10 mg/kg i.p., ketamine 30 mg/kg i.p., 3 min, Fig. 5A
Method: After a 6-day period of acclimatization, all experimental groups received daily successive subcutaneous (250 µl per rat) and intraperitoneal (1 ml/kg) injections. WI rats received injection of vehicle (sesame oil + saline) while WKY rats were randomly assigned to […], as follow: KWY rats receiving only vehicle (sesame oil + saline) and WKY rats treated with MAP4343 (10 mg/kg, s.c.; rats received in parallel i.p. injections of saline), fluoxetine (10 mg/kg i.p., rats received in parallel s.c. injections of sesame oil) or ketamine (30 mg/kg, i.p.; rats received in parallel s.c. injections of sesame oil) (see Figure 3).
After, a 6-day period of acclimatization, the acute phase of treatment started for 4 days during behavioral tests were performed (Figure 3). All animals were injected 1h30 before the starting of behavioral test.
The animals were individually placed in the open field arena (OFA) (70 x 100 x 70 cm), with a central square (35 x 50 cm), located in a 50 lux illuminated room and videotaped during 3 min using a computerized system (VideoTrack V2.5, ViewPoint, Lyon, France).
OFA allows firstly the evaluation of total locomotor activity (LMA) thereby measuring the total distance travelled in the arena (in cm). Secondly, measurements of the activity in the center of the arena like (i) the number of entries in the center of arena and (ii) the total time spent in the center of arena (in sec) provide cues of anxiety-like behavior (Prut and Belzung, 2003). All these behavioral parameters were instantaneously measured automatically with the VideoTrack V2.5 software from the videos.

T1 sequence (P04150 whole entry): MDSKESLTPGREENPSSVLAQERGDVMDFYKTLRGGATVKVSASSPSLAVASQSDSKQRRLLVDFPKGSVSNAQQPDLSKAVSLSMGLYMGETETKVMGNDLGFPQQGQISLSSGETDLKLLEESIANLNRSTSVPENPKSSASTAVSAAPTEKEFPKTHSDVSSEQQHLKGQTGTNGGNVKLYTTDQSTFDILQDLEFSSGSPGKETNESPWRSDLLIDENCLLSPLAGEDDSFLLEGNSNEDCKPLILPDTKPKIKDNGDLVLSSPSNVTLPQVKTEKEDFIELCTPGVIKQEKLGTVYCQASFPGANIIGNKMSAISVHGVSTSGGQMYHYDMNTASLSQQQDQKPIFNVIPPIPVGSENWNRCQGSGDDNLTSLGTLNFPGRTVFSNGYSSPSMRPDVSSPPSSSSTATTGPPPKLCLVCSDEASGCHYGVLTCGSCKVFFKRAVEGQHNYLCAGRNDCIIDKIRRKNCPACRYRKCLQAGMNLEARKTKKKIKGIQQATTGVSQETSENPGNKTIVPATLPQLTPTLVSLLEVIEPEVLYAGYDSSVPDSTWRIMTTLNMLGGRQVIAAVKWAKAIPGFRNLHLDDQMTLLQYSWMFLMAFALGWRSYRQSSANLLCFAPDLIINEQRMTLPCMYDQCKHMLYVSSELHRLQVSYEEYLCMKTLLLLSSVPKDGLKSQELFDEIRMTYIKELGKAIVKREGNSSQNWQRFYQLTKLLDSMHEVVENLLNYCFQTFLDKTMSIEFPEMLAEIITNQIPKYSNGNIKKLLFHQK

For `CO[C@H]1CC[C@@]2(C)C(=CC[C@H]3[C@@H]4CC[C@H](C(C)=O)[C@@]4(C)CC[C@@H]32)C1` (stereo in doubt) [MAP4343, 3β-methoxy-pregna-5-ene-20-one], the “% inhibition” value [1] was 21%, the inhibition at 10 µM [1] was under 25% and the inhibition at 10 µM [2] was -3%. For the same compound, the inhibition at 10 µM [3] was 12%, the “% Inhibition of control specific binding” value [4] was 7% and the inhibition at 10 µM [5] was -4%. The inhibition at 10 µM [6] was 1%, the inhibition at 10 µM [7] was -4% and the inhibition at 10 µM [8] was 7%. It also gave an inhibition at 10 µM [9] of 12%, an inhibition at 10 µM [10] of 3% and an inhibition at 10 µM [11] of 2%. The inhibition at 10 µM [12] was 6%, the inhibition at 10 µM [13] was 12% and the inhibition at 10 µM [14] was -3%. The inhibition at 10 µM [15] was 19%, the inhibition at 10 µM [16] was 0% and the “locomotor activity (total distance travelled in the open-field arena), change as compared to WKY receiving vehicle” value [17] was “did not modify significantly”.

From patent EP3436024B1, “3-BETA-METHOXY-PREG FOR USE IN THE TREATMENT OF TREATMENT RESISTANT DEPRESSION” (Mapreg, priority 2016, dated 2017)
